Marks after values point to notes of the source that are not given here.
How the values were obtained:
Assay type in all cases: in vivo, S.D. rats
[1] = Body weight gain in rib fracture-induced rat model
Method: (§1) The benzamidine compound of Chemical Formula 1 was assayed for therapeutic effect on bone fracture in rat models subjected to rib fracture. Starting from 2 days after the induction of rib fracture, the administration of the benzamidine compound was continued for one, two, three and four weeks. Changes in (body weight, body weight gain, volume of bony callus, bone density, bone strength, and bone histopathology were observed.
(§2) A total of 80 S.D. rats (10-week-old, BioGenomics, Korea) was adapted to a laboratory environment for 12 days before being used in experiments. While being housed at a density of two or three to a plastic cage, the experimental animals were kept in a breeding room under controlled temperature (20 to 25° C.) and humidity (30 to 35%). Under light-dark cycles of 12 hours, the rats were allowed to have free access to feedstuff and tap water.
(§3) 10 mg and 50 mg of N-hydroxy-4-{5-[4-(5-isopropyl-2-methyl-1,3-thiazol-4-yl)phenoxy]pentoxy}benzamidine were completely dissolved in 5 ml of sterilized distilled water. The benzamidine compound in the solutions was orally administered at doses of 10 mg and 50 mg per kg of body weight once a day for one, two, three and four weeks from day 2 of the surgery.
(§4) All the experimental animals were anesthetized with ketamine hydrochloride and xylazine hydrochloride and underwent an operation for inducing a fracture on the 8th and the 9th rib. In this regard, the ribs were transversely cut with operation scissors. After the fracture induction, the fractured ribs were assembled to be aligned with each other and the wound cavity was closed through skin suture.
All the experimental animals were measured for body weight one day before the operation, the day of the operation, the day of administration, and 7, 14, 21 and 28 days after administration. In order to reduce the difference among individuals due to feedstuff intake, all experimental animals were starved for 18 hours or more on the day of the measurement. Also, to minimize the difference of change in body weight of individual animals, body weight gain during time periods from the day of the operation to 7, 14, 21 and 28 days after the administration were calculated.

[2] = tested on: bony callus formed around the fractured 8th and 9th ribs; experiment: Volume of bony callus in rib fracture-induced rat model
Method: as §1, §2, §3, §4
On the sacrificial day, the bony callus formed around the fractured 8th and 9th ribs was separated from adjacent tissues and taken out of all experimental animals. The enucleated bony calluses were measured for long and short diameters in millimeters. The volume of the bony callus was calculated from the measurements using the following mathematic formula 1. Volume of Bony callus=½×(a×b^2) Formula 1
a: long diameter of bony callus,
b: short diameter of bony callus.

bony callus [3] = experiment: Histomorphometry of bony callus (connective, cartilage, bone tissue content), 8th rib
Method: as §1, §2, §3, §4
(§5) The 8th rib enucleated after the fracture induction was fixed in 10% neutral formalin, followed by decalcification by changing a decalcification solution (2.24% formic acid, 0.5N […]) with fresh solution once a day for five days. After completion of the decalcification, the rib was embedded in paraffin. The paraffin-embedded tissue was sliced at a thickness of 3 to 4 μm, stained with hematoxylin-eosin or Masson's trichrome and observed through an optical microscope.
From the rib tissue specimen prepared above, the amounts of the connective tissue, cartilage and bone tissue in the bony callus were examined using an Analysis Image processing system (SIS Germany) and are represented as percentages in Tables 3 to 5, below.

[4] = tested on: osteoclasts in the bony callus; experiment: Number of osteoclasts in the bony callus, 8th rib
Method: as §1, §2, §3, §4, §5
Furthermore, the number of osteoclasts in the bony callus, particularly, within an area of (200 μm)^2 on the fracture surface at which endochondral ossification commenced, was measured using an Analysis Image processing system (SIS Germany).

bony callus [5] = experiment: Bone density of bony callus (DEXA), 9th rib
Method: as §1, §2, §3, §4
The 9th rib enucleated after the fracture induction was measured for the bone density around the bony callus using dual-energy x-ray absorptiometry (DEXA, PXImus; Lunar Medison, Wis.) and the bone density is calculated in mg/cm^2 in Table 7.

bony callus [6] = experiment: Bone strength of bony callus (three point bending test), 9th rib
Method: as §1, §2, §3, §4
The bone strength around the fracture face at which a bony callus was formed in the 9th rib enucleated after the fracture induction was determined from three point bending tests using an Instron material testing system (Instron 6022; Instron, USA; speed 20 mm/min).

bony callus [7] = experiment: Histopathological observation of 8th rib (FIG. 1); details: all administration time periods; versus non-treated group; dose-dependent
Method: FIG. 1 an optical microphotograph showing sliced tissue specimens of the 8th rib extracted after fracture induction, stained with Masson's trichrome.
as §1, §2
as §3, with “surgery. […]” for “surgery.”

rib fracture = experiment: Effect of promoting fracture healing in rib fracture-induced rat model (overall); details: compared with the results for N-hydroxy benzamidine compound above
Method: as §1, §2
as §3, with “surgery. […]” for “surgery.”

[8] = 10 mg/kg oral once a day, 7 days after administration
[9] = 10 mg/kg oral once a day, 14 days after administration
[10] = 10 mg/kg oral once a day, 21 days after administration
[11] = 10 mg/kg oral once a day, 28 days after administration
[12] = 50 mg/kg oral once a day, 7 days after administration
[13] = 50 mg/kg oral once a day, 14 days after administration
[14] = 50 mg/kg oral once a day, 21 days after administration
[15] = 50 mg/kg oral once a day, 28 days after administration

For `Cc1nc(-c2ccc(OCCCCCOc3ccc(C(=N)NO)cc3)cc2)c(C(C)C)s1` [Cpd. Of Chemical Formula 1, N-hydroxy-4-{5-[4-(5-isopropyl-2-methyl-1,3-thiazol-4-yl)phenoxy]pentoxy}benzamidine], the “Changes in Body Weight Gain” value [1, 8] was 16.00 ± 13.55 g, the “Changes in Body Weight Gain” value [1, 9] was 44.40 ± 14.54 g and the “Changes in Body Weight Gain” value [1, 10] was 46.40 ± 22.39 g. The “Changes in Body Weight Gain” value [1, 11] was 61.20 ± 22.81 g, the “Changes in Body Weight Gain” value [1, 12] was 14.80 ± 08.81 g and the “Changes in Body Weight Gain” value [1, 13] was 36.82 ± 29.52 g. For the same compound, the “Changes in Body Weight Gain” value [1, 14] was 68.60 ± 16.65 g, the “Changes in Body Weight Gain” value [1, 15] was 84.40 ± 23.37 g and the “Changes in Bony Callus Volume” value [2, 8] was 12.84 ± 4.42* mm^3. The “Changes in Bony Callus Volume” value [2, 9] was 5.47 ± 1.81* mm^3, the “Changes in Bony Callus Volume” value [2, 10] was 4.73 ± 2.13* mm^3 and the “Changes in Bony Callus Volume” value [2, 11] was 3.96 ± 2.41* mm^3. For the same compound, the “Changes in Bony Callus Volume” value [2, 12] was 8.62 ± 3.43* mm^3, the “Changes in Bony Callus Volume” value [2, 13] was 4.36 ± 1.44* mm^3 and the “Changes in Bony Callus Volume” value [2, 14] was 3.84 ± 1.86* mm^3. For the same compound, the “Changes in Bony Callus Volume” value [2, 15] was 3.37 ± 0.79* mm^3, the “Changes in Content of Bone Tissue in Bony Callus” value (“Changes in Content of Bone Tissue” for short) (bony callus [3]; [8]) was 37.95 ± 6.44 % relative to total bony callus and the “Changes in Content of Cartilage Tissue in Bony Callus” value (bony callus [3]; [8]) was 24.79 ± 5.43 % relative to total bony callus. The “Changes in Content of Connective Tissue of Bony Callus” value (“Changes in Content … of Bony Callus” below) (bony callus [3]; [8]) was 33.19 ± 3.06 % relative to total bony callus, the “Changes in Content of Bone Tissue” value (bony callus [3]; [9]) was 54.31 ± 9.50 % relative to total bony callus and the “Changes in Content of Cartilage Tissue in Bony Callus” value (bony callus [3]; [9]) was 23.77 ± 3.44 % relative to total bony callus. The “Changes in Content … of Bony Callus” value (bony callus [3]; [9]) was 6.28 ± 0.72 % relative to total bony callus, the “Changes in Content of Bone Tissue” value (bony callus [3]; [10]) was 66.71 ± 5.41 % relative to total bony callus and the “Changes in Content of Cartilage Tissue in Bony Callus” value (bony callus [3]; [10]) was 18.51 ± 2.29 % relative to total bony callus. The “Changes in Content … of Bony Callus” value (bony callus [3]; [10]) was 5.55 ± 1.42 % relative to total bony callus, the “Changes in Content of Bone Tissue” value (bony callus [3]; [11]) was 83.30 ± 4.43 % relative to total bony callus and the “Changes in Content of Cartilage Tissue in Bony Callus” value (bony callus [3]; [11]) was 6.59 ± 2.02 % relative to total bony callus. The “Changes in Content … of Bony Callus” value (bony callus [3]; [11]) was 3.20 ± 0.89 % relative to total bony callus, the “Changes in Content of Bone Tissue” value (bony callus [3]; [12]) was 39.24 ± 14.12 % relative to total bony callus and the “Changes in Content of Cartilage Tissue in Bony Callus” value (bony callus [3]; [12]) was 22.42 ± 5.45 % relative to total bony callus. The “Changes in Content … of Bony Callus” value (bony callus [3]; [12]) was 29.51 ± 5.70 % relative to total bony callus, the “Changes in Content of Bone Tissue” value (bony callus [3]; [13]) was 55.94 ± 8.38 % relative to total bony callus and the “Changes in Content of Cartilage Tissue in Bony Callus” value (bony callus [3]; [13]) was 20.09 ± 6.38 % relative to total bony callus. For the same compound, the “Changes in Content … of Bony Callus” value (bony callus [3]; [13]) was 6.06 ± 0.44 % relative to total bony callus, the “Changes in Content of Bone Tissue” value (bony callus [3]; [14]) was 74.07 ± 8.43 % relative to total bony callus and the “Changes in Content of Cartilage Tissue in Bony Callus” value (bony callus [3]; [14]) was 11.49 ± 2.31 % relative to total bony callus. For the same compound, the “Changes in Content … of Bony Callus” value (bony callus [3]; [14]) was 3.58 ± 0.62 % relative to total bony callus, the “Changes in Content of Bone Tissue” value (bony callus [3]; [15]) was 87.27 ± 8.97 % relative to total bony callus and the “Changes in Content of Cartilage Tissue in Bony Callus” value (bony callus [3]; [15]) was 5.37 ± 1.38 % relative to total bony callus. The “Changes in Content … of Bony Callus” value (bony callus [3]; [15]) was 2.59 ± 0.52 % relative to total bony callus, the “Changes in Population of Osteoclasts within Bony Callus” value (“Changes in Population” for short) [4, 8] was 43.80 ± 3.83 Counts present within (200 μm)^2 of bony callus and the “Changes in Population” value [4, 9] was 50.60 ± 2.70 Counts present within (200 μm)^2 of bony callus. The “Changes in Population” value [4, 10] was 31.00 ± 6.67 Counts present within (200 μm)^2 of bony callus, the “Changes in Population” value [4, 11] was 21.60 ± 3.58 Counts present within (200 μm)^2 of bony callus and the “Changes in Population” value [4, 12] was 42.60 ± 4.62 Counts present within (200 μm)^2 of bony callus. For the same compound, the “Changes in Population” value [4, 13] was 53.60 ± 2.41 Counts present within (200 μm)^2 of bony callus, the “Changes in Population” value [4, 14] was 22.20 ± 3.03 Counts present within (200 μm)^2 of bony callus and the “Changes in Population” value [4, 15] was 17.60 ± 2.97 Counts present within (200 μm)^2 of bony callus. For the same compound, the “Changes in Bone Density of Bony Callus” value (bony callus [5]; [8]) was 0.24 ± 0.04 mg/cm^2, the “Changes in Bone Density of Bony Callus” value (bony callus [5]; [9]) was 0.32 ± 0.04 mg/cm^2 and the “Changes in Bone Density of Bony Callus” value (bony callus [5]; [10]) was 0.39 ± 0.04 mg/cm^2. The “Changes in Bone Density of Bony Callus” value (bony callus [5]; [11]) was 0.55 ± 0.06 mg/cm^2, the “Changes in Bone Density of Bony Callus” value (bony callus [5]; [12]) was 0.24 ± 0.03 mg/cm^2 and the “Changes in Bone Density of Bony Callus” value (bony callus [5]; [13]) was 0.32 ± 0.04 mg/cm^2. The “Changes in Bone Density of Bony Callus” value (bony callus [5]; [14]) was 0.44 ± 0.07 mg/cm^2, the “Changes in Bone Density of Bony Callus” value (bony callus [5]; [15]) was 0.57 ± 0.04 mg/cm^2 and the “Changes in bone strength of bony callus” value (bony callus [6]; [8]) was 2.15 ± 0.42 Nos. of Impact applied. The “Changes in bone strength of bony callus” value (bony callus [6]; [9]) was 2.57 ± 0.65 Nos. of Impact applied, the “Changes in bone strength of bony callus” value (bony callus [6]; [10]) was 3.10 ± 0.40 Nos. of Impact applied and the “Changes in bone strength of bony callus” value (bony callus [6]; [11]) was 3.26 ± 0.43 Nos. of Impact applied. For the same compound, the “Changes in bone strength of bony callus” value (bony callus [6]; [12]) was 2.35 ± 0.47 Nos. of Impact applied, the “Changes in bone strength of bony callus” value (bony callus [6]; [13]) was 2.84 ± 0.34 Nos. of Impact applied and the “Changes in bone strength of bony callus” value (bony callus [6]; [14]) was 3.23 ± 0.35 Nos. of Impact applied. For the same compound, the “Changes in bone strength of bony callus” value (bony callus [6]; [15]) was 3.35 ± 0.38 Nos. of Impact applied and the “Bone tissue in bony callus, histopathological observation (FIG. 1)” value (bony callus [7]) was “increased bone tissue in bony callus in all administration time periods”.

For `Cc1nc(-c2ccc(OCCCCCOc3ccc(C(=N)NO)cc3)cc2)c(C(C)C)s1` [N-hydroxy-4-{5-[4-(5-isopropyl-2-methyl-1,3-thiazol-4-yl)phenoxy]pentoxy}benzamidine], the “Healing effects on bone fracture” value (rib fracture) was “same healing effects as above”.

In the case of `Cc1nc(-c2ccc(OCCCCCOc3ccc(C(=N)N)cc3)cc2)c(C(C)C)s1` [4-{5-[4-(5-isopropyl-2-methyl-1,3-thiazol-4-yl)phenoxy]pentoxy}benzamidine], the “Healing effects on bone fracture” value (rib fracture) is reported as “same healing effects as above”.

— patent US7923443B2, “Pharmaceutical composition for the treatment of bone fracture” (Dong Wha Pharmaceutical Co., Ltd., priority 2004, dated 2011)
